Results from ChEMBL document CHEMBL2021794, “Synthesis, σ₁, σ₂-receptors binding affinity and antiproliferative action of new C1-substituted adamantanes” (Bioorg Med Chem, 2012).

Legend:
[1] = system: SK-HEP1; test: Growth inhibition of human SKHEP1 cells after 48 hrs by SRB assay; type: functional; conditions: SK-HEP1, 48 h; for CC50: read-out: LC50 (the source's name)
[2] = system: MCF7; test: Growth inhibition of human MCF7 cells after 48 hrs by SRB assay; type: functional; conditions: MCF7, 48 h; for CC50: read-out: LC50 (the source's name)
[3] = system: OVCAR-5; test: Growth inhibition of human OVCAR5 cells after 48 hrs by SRB assay; type: functional; conditions: OVCAR-5, 48 h; for CC50: read-out: LC50 (the source's name)
[4] = system: BXPC-3; test: Growth inhibition of human BxPC3 cells after 48 hrs by SRB assay; type: functional; conditions: BXPC-3, 48 h
[5] = system: H69AR; test: Growth inhibition of human H69AR cells after 48 hrs by SRB assay; type: functional
[6] = system: DU-145; test: Growth inhibition of human DU145 cells after 48 hrs by SRB assay; type: functional; conditions: DU-145, 48 h
[7] = (§1) Growth inhibition of HUVEC cells after 48 hrs by SRB assay; type: cell-based; conditions: human, HUVEC cells
[8] = system: HUVEC; test: as §1; type: cell-based; conditions: human, huvec, 48 h
[9] = system: PC-3; test: Growth inhibition of human PC3 cells after 48 hrs by SRB assay; type: functional; conditions: PC-3, 48 h
[10] = system: BXPC-3; test: Antitumor activity against human BxPC3 cells xenografted in SCID mouse assessed as tumor weight at 17 mg/kg, ip twice a week (reference value: 723 +/- 45 mg); type: functional; conditions: route intraperitoneal
[11] = system: U-251; test: Growth inhibition of human U251 cells after 48 hrs by SRB assay; type: functional; conditions: U-251, 48 h
[12] = system: HCT-15; test: Growth inhibition of human HCT15 cells after 48 hrs by SRB assay; type: functional; conditions: HCT-15, 48 h
[13] = system: MIA PaCa-2; test: Growth inhibition of human MIAPaCa2 cells after 48 hrs by SRB assay; type: functional; conditions: MIA PaCa-2, 48 h
[14] = system: HL-60(TB); test: Growth inhibition of human HL-60(TB) cells after 48 hrs by SRB assay; type: functional; conditions: HL-60, 48 h
[15] = system: SF-295; test: Growth inhibition of human SF295 cells after 48 hrs by SRB assay; type: functional; conditions: SF-295, 48 h
[16] = system: NCI-H460; test: Growth inhibition of human NCI-H460 cells after 48 hrs by SRB assay; type: functional; conditions: NCI-H460, 48 h
[17] = system: DMS-114; test: Growth inhibition of human DMS114 cells after 48 hrs by SRB assay; type: functional; conditions: DMS-114, 48 h; for CC50: read-out: LC50 (the source's name)
[18] = system: IGROV-1; test: Growth inhibition of human IGROV1 cells after 48 hrs by SRB assay; type: functional; conditions: IGROV-1, 48 h; for CC50: read-out: LC50 (the source's name)
[19] = system: BXPC-3; test: Antitumor activity against human BxPC3 cells xenografted in SCID mouse assessed as reduction in tumor volume at 17 mg/kg, ip twice a week; type: functional; conditions: BXPC-3, ip, route intraperitoneal
[20] = system: HCT-116; test: Growth inhibition of human HCT116 cells after 48 hrs by SRB assay; type: functional; conditions: HCT-116, 48 h; for CC50: read-out: LC50 (the source's name)
[21] = Growth inhibition of human MSC cells after 48 hrs by SRB assay; type: cell-based; conditions: for GI50 at 48 h: MSC cells; for LC50 / TGI: msc, 48 h
[22] = system: NCI-H69; test: Growth inhibition of human NCI-H69 cells after 48 hrs by SRB assay; type: functional; conditions: NCI-H69, 48 h
[23] = Displacement of [3H](+)1-DTG from sigma-2 receptor expressed in rat cerebral cortex membranes after 2 hrs by liquid scintillation spectroscopy; type: cell membranes, Membrane
[24] = biological target: Sigma non-opioid intracellular receptor 1 (Homo sapiens, UniProt Q99720); test: Displacement of [3H](+)pentazocine from sigma-1 receptor expressed in human Jurkat cell membranes after 2 hrs by liquid scintillation spectroscopy
[25] = system: SF-268; test: Growth inhibition of human SF268 cells after 48 hrs by SRB assay; type: functional; conditions: SF-268, 48 h; for CC50: read-out: LC50 (the source's name)
[26] = Displacement of [3H]BTX-B from Na+ channel site 2 after 60 mins by liquid scintillation spectroscopy
[27] = system: LOX IMVI; test: Growth inhibition of human LOXIMVI cells after 48 hrs by SRB assay; type: functional
[28] = (§2) Growth inhibition of NHDF cells after 48 hrs by SRB assay; type: cell-based; conditions: human, NHDF cells
[29] = system: NHDF; test: as §2; type: cell-based; conditions: human, nhdf, 48 h
[30] = read-out: LC50 (the source's name)

Chain of Sigma non-opioid intracellular receptor 1 (Q99720 whole entry): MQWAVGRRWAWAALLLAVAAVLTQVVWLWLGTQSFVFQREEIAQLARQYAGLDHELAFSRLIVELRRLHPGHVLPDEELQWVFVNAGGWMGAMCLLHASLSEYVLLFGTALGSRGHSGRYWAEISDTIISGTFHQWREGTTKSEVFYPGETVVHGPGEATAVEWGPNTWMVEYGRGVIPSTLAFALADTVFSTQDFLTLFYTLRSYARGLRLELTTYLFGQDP

O=c1[nH]cc(F)c(=O)[nH]1 [FLUOROURACIL]
GI50 [1]: 6.3 µM
TGI [1]: 100 µM
CC50 [1]: 100 µM
GI50 [2]: 9.9 µM
TGI [2]: 100 µM
CC50 [2]: 100 µM
GI50 [3]: 20 µM
TGI [3]: 100 µM
CC50 [3]: 100 µM
GI50 [4]: 8.2 µM
TGI [4]: 100 µM
GI50 [5]: 100 µM
TGI [5]: 100 µM
CC50 [5, 30]: 100 µM
GI50 [6]: 9.37 µM
TGI [6]: 100 µM
CC50 [6, 30]: 100 µM
GI50 at 48 h [7]: 9.72 µM
LC50 [8]: 100 µM
TGI [8]: 100 µM
GI50 [9]: 21 µM
TGI [9]: 100 µM
CC50 [9, 30]: 100 µM
Activity [10]: 700%
GI50 [11]: 82 µM
TGI [11]: 100 µM
CC50 [11, 30]: 100 µM
GI50 [12]: 21 µM
TGI [12]: 100 µM
GI50 [13]: 30 µM
TGI [13]: 100 µM
CC50 [13, 30]: 100 µM
GI50 [14]: 100 µM
TGI [14]: 100 µM
GI50 [15]: 76 µM
TGI [15]: 100 µM
CC50 [15, 30]: 100 µM
GI50 [16]: 6.5 µM
TGI [16]: 100 µM
GI50 [17]: 100 µM
TGI [17]: 100 µM
CC50 [17]: 100 µM
GI50 [18]: 9.1 µM
TGI [18]: 100 µM
CC50 [18]: 100 µM
inhibition in vivo at 17 mg/kg [19]: 3.25%
GI50 [20]: 9.9 µM
TGI [20]: 100 µM
CC50 [20]: 100 µM
GI50 at 48 h [21]: 8.92 µM
LC50 [21]: 100 µM
TGI [21]: 86.06 µM
GI50 [22]: 100 µM
TGI [22]: 100 µM
CC50 [22, 30]: 100 µM

c1ccc(C(c2ccc(N3CCOCC3)cc2)C23CC4CC(CC(C4)C2)C3)cc1 (configuration not stated)
TGI [2]: 100 µM
CC50 [2]: 100 µM
TGI [3]: 100 µM
CC50 [3]: 100 µM
IC50 [23]: > 1 µM
LC50 [4]: 100 µM
TGI [4]: 100 µM
IC50 [24]: > 0.1 µM
CC50 [25]: 100 µM
LC50 (concentration killing 50% of cells) [16]: 100 µM
TGI [16]: 100 µM
IC50 [26]: > 10 µM
TGI [20]: 100 µM
CC50 [20]: 100 µM

c1ccc(C(c2ccc(N3CCNCC3)cc2)C23CC4CC(CC(C4)C2)C3)cc1 (configuration not stated)
GI50 [1]: 3.91 µM
TGI [1]: 6.48 µM
CC50 [1]: 9.04 µM
GI50 [27]: 2.79 µM
LC50 (concentration killing 50% of cells) [27]: 8.11 µM
TGI [27]: 5.45 µM
GI50 [2]: 2.49 µM
TGI [2]: 5.59 µM
CC50 [2]: 8.68 µM
GI50 [3]: 4.27 µM
TGI [3]: 7.33 µM
CC50 [3]: 10.4 µM
IC50 [23]: > 1 µM
GI50 [4]: 3.61 µM
LC50 [4]: 9.05 µM
TGI [4]: 6.33 µM
IC50 [24]: 0.0124 µM
GI50 at 48 h [28]: 2.97 µM
LC50 [29]: 9.49 µM
TGI [29]: 6.23 µM
GI50 at 48 h [7]: 4.8 µM
LC50 [8]: 100 µM
TGI [8]: 7.62 µM
GI50 [12]: 3.4 µM
LC50 [12]: 8.9 µM
TGI [12]: 6.15 µM
GI50 [25]: 3.45 µM
TGI [25]: 6.11 µM
CC50 [25]: 8.76 µM
GI50 [14]: 5.97 µM
LC50 [14]: 100 µM
TGI [14]: 9.92 µM
GI50 [16]: 3.74 µM
LC50 (concentration killing 50% of cells) [16]: 9.7 µM
TGI [16]: 6.72 µM
GI50 [17]: 3.97 µM
TGI [17]: 6.51 µM
CC50 [17]: 9.05 µM
IC50 [26]: 1.2 µM
GI50 [18]: 3.32 µM
TGI [18]: 6.1 µM
CC50 [18]: 8.89 µM
GI50 [20]: 3.67 µM
TGI [20]: 6.54 µM
CC50 [20]: 9.41 µM
GI50 at 48 h [21]: 4.87 µM
LC50 [21]: 9.33 µM
TGI [21]: 7.1 µM
